{"source": "paper PMC9065678", "about": "“BI 1015550 is a PDE4B Inhibitor and a Clinical Drug Candidate for the Oral Treatment of Idiopathic Pulmonary Fibrosis” (Frontiers in Pharmacology, 2022)", "key": {"[1]": {"assay": "Off-target screening, Cerep high-throughput profile and non-kinase enzyme profile"}, "[2]": {"tested_on": "LPS-stimulated TNF-α release", "assay": "LPS-induced TNF-α release in rat whole blood", "type": "cell-based", "details": "LPS 10 µg/mL", "experimental": "(§1) Heparinized whole blood was collected from the Aorta abdominalis of WI (Han) male rats (Charles River Laboratories, Sulzfeld, Germany) and from healthy male human donors, and treated with 1 µL (rat) or 2.5 µL (human) of BI 1015550 or vehicle [final DMSO concentration 0.5% (v/v)]. Final assay volumes were 200 μL (rat) and 500 μL (human). After incubation for 30 min at 37°C, 95% humidity, and 5% CO2, cultures were treated with LPS [final concentration 10 µg/mL (rat), 0.1 µg/mL (human)] or saline. After 7 h, plates were centrifuged at 3.200 × g at 4°C for 10 min and plasma was used for cytokine measurement. Meso Scale Discovery (MSD) (Rockville, MD, United States) rat and human pro-inflammatory panels were used for detection of TNF-α and IL-6 in rat plasma [diluted 1:2 (v/v)]) and human plasma [negative control undiluted, other samples diluted 1:200 (v/v)] according to the manufacturer’s instructions."}, "[3]": {"tested_on": "LPS-stimulated IL-6 release", "assay": "LPS-stimulated IL-6 release in rat whole blood", "type": "cell-based", "details": "high concentrations", "experimental": "as §1"}, "[4]": {"tested_on": "bleomycin-challenged mice", "assay": "Therapeutic bleomycin mouse model of lung fibrosis", "type": "in vivo", "experimental": "Adult, test-naïve, male C57BL6/6J mice, aged 10–12 weeks from Charles River were used (weight 25–27 g). The model was performed essentially as described by [Ackermann et al. (2017)]. Briefly, bleomycin 1 mg/kg (Calbiochem, Darmstadt, Germany) was administered intratracheally in an application volume of 2 mL/kg body weight. Animals were weighed daily. […] BI 1015550 (at final doses of 2.5 and 12.5 mg/kg) was applied by oral gavage using a dose volume of 10 mL/kg twice daily (b.i.d.) from day 8 until day 13. On day 12, animals were anesthetized using 3–4% isoflurane, and lung density was assessed by micro-computed tomography (µCT) analysis with a Quantum FX µCT system (Perkin Elmer) with cardiac gating (without respiratory gating). Images were analyzed using MicroView 2.0 software (GE Healthcare). The Hounsfield unit (HU) corresponding to the peak of the HU-histogram for the segmented pixels was used as a measure of fibrosis. After µCT analysis, animals were allowed to awaken from anesthesia. On day 14, lung function [pressure-volume loops, FVC, and static lung compliance (Cstat)] was measured with a FlexiVent system (SCIREQ, Montreal, PQ, Canada). After the lung function measurement, animals were sacrificed by an overdose of Narcorene and lungs were lavaged with two-times 0.8 mL of PBS. BALF was used to determine differential cell counts (Sysmex XT-1800iVet) and the number of monocytes. Left lung lobes were fixed with 4% paraformaldehyde and inflated under 20 cm water pressure for 20 min. Samples were embedded in paraffin, sectioned (3 μm thickness), and stained for hematoxylin and eosin (HE) and Masson’s trichrome to assess general morphology and fibrotic change following standard histopathology operating protocols. Images were taken with an AxioCam MRm microscope camera using AxioVision software (Carl Zeiss Microscopy, LLC, White Plains, NY, United States). Lung sections stained with Masson’s trichrome were assessed for severity of pulmonary fibrosis using the Ashcroft score. The protocol used is therapeutic, i.e. treatment commenced at a time where lung fibrosis should have developed, in line with the recommendations of the American Thoracic Society panel on IPF models ([Jenkins et al., 2017])."}, "PDE4A": {"target": "T1, PDE4A (Homo sapiens, UniProt P27815)", "T1 construct": "PDE4A (NG_029594, AA 156–886); made in house; host or cells: SF9 insect cells (baculovirus, Bac-To-Bac, pFastbac)", "T1 sequence (P27815 156-886)": "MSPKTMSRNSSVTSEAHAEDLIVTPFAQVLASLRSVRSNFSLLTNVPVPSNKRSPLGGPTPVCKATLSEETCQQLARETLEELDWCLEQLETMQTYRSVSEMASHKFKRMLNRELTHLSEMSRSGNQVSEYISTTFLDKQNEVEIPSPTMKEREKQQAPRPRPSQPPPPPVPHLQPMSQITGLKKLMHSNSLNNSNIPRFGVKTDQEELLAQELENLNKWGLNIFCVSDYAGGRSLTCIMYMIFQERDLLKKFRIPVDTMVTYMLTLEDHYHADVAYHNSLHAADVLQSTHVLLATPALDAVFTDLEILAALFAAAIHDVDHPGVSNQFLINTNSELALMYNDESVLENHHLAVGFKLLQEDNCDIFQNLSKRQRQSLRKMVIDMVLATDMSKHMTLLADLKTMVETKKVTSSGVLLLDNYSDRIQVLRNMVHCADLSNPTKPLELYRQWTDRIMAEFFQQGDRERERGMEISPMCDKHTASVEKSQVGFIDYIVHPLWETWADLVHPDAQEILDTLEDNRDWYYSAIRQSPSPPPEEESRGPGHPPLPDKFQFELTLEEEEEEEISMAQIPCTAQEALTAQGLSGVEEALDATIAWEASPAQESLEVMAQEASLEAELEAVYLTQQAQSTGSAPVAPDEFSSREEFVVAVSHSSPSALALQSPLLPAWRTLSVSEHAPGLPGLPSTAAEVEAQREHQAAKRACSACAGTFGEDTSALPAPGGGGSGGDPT", "assay": "Recombinant PDE activity, scintillation proximity assay: PDE4A", "type": "biochemical", "details": "substrate [3H]cAMP, means from n independent experiments", "experimental": "For the preparation of human recombinant PDEs of interest, the Bac-To-Bac baculoviral expression system from Invitrogen (Carlsbad, CA, United States) was used according to the instruction manual. […] The plasmids were transformed into DH10Bac bacteria, SF9 insect cells were transfected with the bacmid DNA, and the resulting baculoviruses were stored and used for further rounds of infections. For protein production, SF9 cells were infected until a cytopathic effect was visible (after about 72 h), the SF9 cells were harvested and broken up by 3 freeze/thaw cycles, and by shearing 10 times through a 0.1 mm cannula using a syringe. […] The Phosphodiesterase Scintillation Proximity Assays (TRKQ7090 for [^3H]cAMP, GE Healthcare Europe GmbH, Chalfont St Giles, United Kingdom, and TRKQ7100 for [^3H]cGMP, Perkin Elmer, Waltham, MA, United States) were performed essentially according to the instruction manual. […] Assay solutions containing recombinant baculoviral-expressed PDE (to give an activity of 5.000–20.000 cpm corresponding to 5–20% of total activity added), 50 mmol/L Tris/HCl pH 7.5, 8.3 mmol/L MgCl2, 1.7 mmol/L EGTA, and 10 µL radiolabeled substrate (0.05 µCi in H2O) were incubated for 1 h at 30°C (final volume 100 μL)."}, "[5]": {"details": "mice, 2.5 mg/kg b.i.d. oral day 8 to day 13, measured day 14"}, "[6]": {"details": "mice, 12.5 mg/kg b.i.d. oral day 8 to day 13, measured day 14, 12.5 mg/kg"}}, "note": "Marks after values point to notes of the source that are not given here."}
{"compound": "[O-][S+]1CCc2nc(N3CCC(c4ncc(Cl)cn4)CC3)nc(NC3(CO)CCC3)c21", "note": "(stereo not shown) [BI 1015550]", "values": [{"measurement": "Off-target effects", "setting": "[1]", "value": "not shown any other off-target effects"}, {"measurement": "Extent of inhibition of TNF-α release", "setting": "[2]", "value": "completely inhibited"}, {"measurement": "IC50", "setting": "[2]", "value": 91, "unit": "nM"}, {"measurement": "Increase of IL-6 compared with LPS-treated samples without PDE4 inhibitor", "setting": "[3]", "value": "fourfold"}, {"measurement": "Effect on BALF protein and monocytes, airway compliance", "setting": "[4]; bleomycin mice", "value": "no effects"}, {"measurement": "Effect on weight gain", "setting": "[4]; bleomycin mice, data not shown", "value": "no significant effect"}, {"measurement": "Fibrosis < score, % improvement compared to bleomycin control", "setting": "[4]; mice, 2.5 mg/kg b.i.d. oral day 8 to day 13", "value": 2, "unit": "%"}, {"measurement": "Cstat (mL/cm H2O), % improvement compared to bleomycin control", "setting": "[4]; [5]", "value": 21, "unit": "%"}, {"measurement": "FVC (mL), % improvement compared to bleomycin control", "setting": "[4]; [5]", "value": 18, "unit": "%"}, {"measurement": "Ratio tissue density, % improvement compared to bleomycin control", "setting": "[4]; mice, 2.5 mg/kg b.i.d. oral day 8 to day 13, µCT", "value": 4, "unit": "%"}, {"measurement": "Fibrosis < score, % improvement compared to bleomycin control", "setting": "[4]; mice, 12.5 mg/kg b.i.d. oral day 8 to day 13", "value": 11, "unit": "%"}, {"measurement": "Cstat (mL/cm H2O), % improvement compared to bleomycin control", "setting": "[4]; [6]", "value": "40* %"}, {"measurement": "FVC (mL), % improvement compared to bleomycin control", "setting": "[4]; [6]", "value": 41, "unit": "%"}, {"measurement": "Ratio tissue density, % improvement compared to bleomycin control", "setting": "[4]; mice, 12.5 mg/kg b.i.d. oral day 8 to day 13, µCT", "value": 39, "unit": "%"}, {"measurement": "Improvement in PV loops", "setting": "[4]; mice, higher dose (12.5 mg/kg b.i.d.), p < 0.05", "value": 40, "unit": "%"}, {"measurement": "IC50", "setting": "PDE4A", "value": 248, "unit": "nM"}]}
